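Results reflect a 48-hour exposure of cells in 96-well plates to compound at five concentrations. At the GI50, growth is halved. TGI denotes the concentration required for complete inhibition of growth.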
Assays:
Assay in all cases: inhibition of tumour cell growth, NCI panel, 48 h
[1] = tested on: A498 renal
[2] = tested on: MDA-MB-435
[3] = tested on: SF-295 CNS
[4] = tested on: PC-3 prostate
[5] = tested on: 786-0 renal
[6] = tested on: KM12 colon
[7] = tested on: EKVX NSCLC
[8] = tested on: SNB-19 CNS
[9] = tested on: HS 578T breast
[10] = tested on: MOLT-4 leukemia
[11] = tested on: SW-620 colon
[12] = tested on: T-47D breast
[13] = tested on: SK-MEL-5 melanoma
[14] = tested on: SN12C renal
[15] = tested on: NCI-H226 lung
[16] = tested on: HL-60(TB) leukemia
[17] = tested on: MALME-3M melanoma
[18] = tested on: CCRF-CEM leukemia
[19] = tested on: LOX IMVI melanoma
[20] = tested on: RPMI-8226 leukemia
[21] = tested on: A549 NSCLC
[22] = tested on: SR leukemia
[23] = tested on: DU-145 prostate
[24] = tested on: ACHN renal
[25] = tested on: HT29 colon
[26] = tested on: UO-31 renal
[27] = tested on: MCF7 breast
[28] = tested on: OVCAR-3 ovarian
[29] = tested on: NCI/ADR-RES ovarian

**Q.** Which GI50 [1] does the source give for O=C(/C=C/c1cc2ccccc2[nH]c1=O)c1ccc(Cl)cc1 here?
**A.** The GI50 was over 56.3 µM.

**Q.** And the TGI [1]?
**A.** The TGI was over 100 µM.

**Q.** What about the GI50 [2] of the same compound?
**A.** The GI50 was 18.8 µM.

**Q.** And the TGI [2]?
**A.** The TGI was over 50.8 µM.

**Q.** What about the GI50 [3] of the same compound?
**A.** Its GI50 is 23.2 µM.

**Q.** And the TGI [3]?
**A.** Its TGI is over 72.6 µM.

**Q.** And the GI50 [4]?
**A.** The GI50 was over 67.7 µM.

**Q.** What about the TGI [4] of the same compound?
**A.** Its TGI is over 100 µM.

**Q.** What about the GI50 [5] of the same compound?
**A.** The GI50 was over 37.2 µM.

**Q.** And the TGI [5]?
**A.** Its TGI is over 100 µM.

**Q.** And the GI50 [6]?
**A.** Its GI50 is 22.3 µM.

**Q.** And the TGI [6]?
**A.** Its TGI is over 54.6 µM.

**Q.** And the GI50 [7]?
**A.** Its GI50 is 28.5 µM.

**Q.** What about the TGI [7] of the same compound?
**A.** The TGI was over 100 µM.

**Q.** And the GI50 [8]?
**A.** The GI50 was 28.2 µM.

**Q.** And the TGI [8]?
**A.** Its TGI is over 100 µM.

**Q.** And the GI50 [9]?
**A.** The GI50 was over 48 µM.

**Q.** What about the TGI [9] of the same compound?
**A.** The TGI was over 100 µM.

**Q.** And the GI50 [10]?
**A.** Its GI50 is 22.8 µM.

**Q.** And the TGI [10]?
**A.** The TGI was over 100 µM.

**Q.** What about the GI50 [11] of the same compound?
**A.** Its GI50 is 20.5 µM.

**Q.** What about the TGI [11] of the same compound?
**A.** The TGI was over 49.5 µM.

**Q.** What about the GI50 [12] of the same compound?
**A.** The GI50 was 27.3 µM.

**Q.** And the TGI [12]?
**A.** The TGI was over 100 µM.

**Q.** And the GI50 [13]?
**A.** Its GI50 is 47.6 µM.

**Q.** What about the TGI [13] of the same compound?
**A.** Its TGI is over 100 µM.

**Q.** What about the GI50 [14] of the same compound?
**A.** Its GI50 is 30.8 µM.

**Q.** What about the TGI [14] of the same compound?
**A.** The TGI was over 100 µM.

**Q.** What about the GI50 [15] of the same compound?
**A.** Its GI50 is 41 µM.

**Q.** And the TGI [15]?
**A.** The TGI was over 73 µM.

**Q.** And the TGI [16]?
**A.** Its TGI is over 100 µM.

**Q.** And the GI50 [17]?
**A.** The GI50 was 37.2 µM.

**Q.** What about the TGI [17] of the same compound?
**A.** Its TGI is over 70.7 µM.

**Q.** And the GI50 [18]?
**A.** The GI50 was 21.6 µM.

**Q.** What about the TGI [18] of the same compound?
**A.** The TGI was over 100 µM.

**Q.** And the GI50 [19]?
**A.** The GI50 was 19.4 µM.

**Q.** And the TGI [19]?
**A.** Its TGI is over 60.5 µM.

**Q.** And the GI50 [20]?
**A.** Its GI50 is 13.8 µM.

**Q.** And the TGI [20]?
**A.** The TGI was 50.1 µM.

**Q.** What about the GI50 [21] of the same compound?
**A.** Its GI50 is 30.7 µM.

**Q.** What about the TGI [21] of the same compound?
**A.** Its TGI is over 100 µM.

**Q.** What about the GI50 [22] of the same compound?
**A.** The GI50 was 15.6 µM.

**Q.** What about the TGI [22] of the same compound?
**A.** Its TGI is over 57.6 µM.

**Q.** What about the GI50 [23] of the same compound?
**A.** The GI50 was 23 µM.

**Q.** And the TGI [23]?
**A.** The TGI was over 78.8 µM.

**Q.** And the GI50 [24]?
**A.** The GI50 was 33 µM.

**Q.** And the TGI [24]?
**A.** Its TGI is over 64.9 µM.

**Q.** And the GI50 [25]?
**A.** The GI50 was 21 µM.

**Q.** What about the TGI [25] of the same compound?
**A.** Its TGI is over 60.8 µM.

**Q.** What about the GI50 [26] of the same compound?
**A.** The GI50 was over 23 µM.

**Q.** What about the TGI [26] of the same compound?
**A.** Its TGI is over 100 µM.

**Q.** And the GI50 [27]?
**A.** Its GI50 is 17.9 µM.

**Q.** And the TGI [27]?
**A.** The TGI was over 100 µM.

**Q.** What about the GI50 [28] of the same compound?
**A.** The GI50 was 27.3 µM.

**Q.** And the TGI [28]?
**A.** Its TGI is over 67.6 µM.

**Q.** And the GI50 [29]?
**A.** Its GI50 is 21.9 µM.

**Q.** What about the TGI [29] of the same compound?
**A.** Its TGI is 56.2 µM.
